Laboratory results: patent US9896435B2, “N-pyrrolidinyl,N′-pyrazolyl-urea, thiourea, guanidine and cyanoguanidine compounds as TrkA kinase inhibitors” (Array BioPharma Inc., priority 2012, dated 2018)

Key:
Test in all cases: KinaseProfiler off-target kinase profiling
Type in all cases: biochemical
Conditions in all cases: 10 μM, ATP near Km
CSK = CSK (Homo sapiens (Human), UniProt P41240)
Procedure: (§1) Two representative compounds (Example 2, 14) of the invention were tested for off-target kinase activity at a concentration of 10 μM by Millipore, Inc. in their KinaseProfiler™ service against all the kinases available in their full kinase panel. These compounds were run in duplicate at a concentration of ATP near the Km for each individual kinase according to Millipore's specifications. The results are shown in Table B. Data are reported as percent of control (POC) and are the average of the two replicates.

BLK = system: BLK
Procedure: as §1

TrkA = TrkA (Homo sapiens (Human), UniProt P04629)
Procedure: as §1

PKAC-alpha = PKAC-alpha (Homo sapiens (Human), UniProt P17612)
Procedure: as §1

p38delta = p38delta (Homo sapiens (Human), UniProt O15264)
Procedure: as §1

NEK7 = NEK7 (Homo sapiens (Human), UniProt Q8TDX7)
Procedure: as §1

PRKG1beta = PRKG1beta (Homo sapiens (Human), UniProt Q13976)
Procedure: as §1

SGK1 = SGK1 (Homo sapiens (Human), UniProt O00141)
Procedure: as §1

MAPKAP-K5 = MAPKAP-K5 (Homo sapiens (Human), UniProt Q8IW41)
Procedure: as §1

FAK = FAK (Homo sapiens (Human), UniProt Q05397)
Procedure: as §1

IR = IR (Homo sapiens (Human), UniProt P06213)
Procedure: as §1

PKCbetaII = PKCbetaII (Homo sapiens (Human), UniProt P05771)
Procedure: as §1

Abl-P = Abl-P (Homo sapiens (Human), UniProt P00519)
Procedure: as §1

RIPK2 = RIPK2 (Homo sapiens (Human), UniProt O43353)
Procedure: as §1

BrSK2 = BrSK2 (Homo sapiens (Human), UniProt Q8IWQ3)
Procedure: as §1

TAO1 = TAO1 (Homo sapiens (Human), UniProt Q7L7X3)
Procedure: as §1

Plk1 = Plk1 (Homo sapiens (Human), UniProt P53350)
Procedure: as §1

IRR = IRR (Homo sapiens (Human), UniProt P14616)
Procedure: as §1

MKK6 = MKK6 (Homo sapiens (Human), UniProt P52564)
Procedure: as §1

CK1gamma2 = CK1gamma2 (Homo sapiens (Human), UniProt P78368)
Procedure: as §1

NEK2 = NEK2 (Homo sapiens (Human), UniProt P51955)
Procedure: as §1

CK1_y = system: CK1_y
Procedure: as §1

MRCKalpha = MRCKalpha (Homo sapiens (Human), UniProt Q5VT25)
Procedure: as §1

NEK6 = NEK6 (Homo sapiens (Human), UniProt Q9HC98)
Procedure: as §1

HIPK1 = HIPK1 (Homo sapiens (Human), UniProt Q86Z02)
Procedure: as §1

SGK2 = SGK2 (Homo sapiens (Human), UniProt Q9HBY8)
Procedure: as §1

PAK2 = PAK2 (Homo sapiens (Human), UniProt Q13177)
Procedure: as §1

eEF-2K = eEF-2K (Homo sapiens (Human), UniProt O00418)
Procedure: as §1

Fes = Fes (Homo sapiens (Human), UniProt P07332)
Procedure: as §1

MYLK = MYLK (Homo sapiens (Human), UniProt Q15746)
Procedure: as §1

PASK = PASK (Homo sapiens (Human), UniProt Q96RG2)
Procedure: as §1

PKCiota = PKCiota (Homo sapiens (Human), UniProt P41743)
Procedure: as §1

ITK = ITK (Homo sapiens (Human), UniProt Q08881)
Procedure: as §1

mTOR = mTOR (Homo sapiens (Human), UniProt P42345)
Procedure: as §1

Tie2 = Tie2 (Homo sapiens (Human), UniProt Q02763)
Procedure: as §1

EGFR = EGFR (Homo sapiens (Human), UniProt P00533)
Procedure: as §1

MSK1 = MSK1 (Homo sapiens (Human), UniProt O75582)
Procedure: as §1

GSK3beta = GSK3beta (Homo sapiens (Human), UniProt P49841)
Procedure: as §1

LKB1 = LKB1 (Homo sapiens (Human), UniProt Q15831)
Procedure: as §1

Pim-3 = Pim-3 (Homo sapiens (Human), UniProt Q86V86)
Procedure: as §1

CK1gamma1 = CK1gamma1 (Homo sapiens (Human), UniProt Q9HCP0)
Procedure: as §1

Sequence of SGK1 (O00141 whole entry): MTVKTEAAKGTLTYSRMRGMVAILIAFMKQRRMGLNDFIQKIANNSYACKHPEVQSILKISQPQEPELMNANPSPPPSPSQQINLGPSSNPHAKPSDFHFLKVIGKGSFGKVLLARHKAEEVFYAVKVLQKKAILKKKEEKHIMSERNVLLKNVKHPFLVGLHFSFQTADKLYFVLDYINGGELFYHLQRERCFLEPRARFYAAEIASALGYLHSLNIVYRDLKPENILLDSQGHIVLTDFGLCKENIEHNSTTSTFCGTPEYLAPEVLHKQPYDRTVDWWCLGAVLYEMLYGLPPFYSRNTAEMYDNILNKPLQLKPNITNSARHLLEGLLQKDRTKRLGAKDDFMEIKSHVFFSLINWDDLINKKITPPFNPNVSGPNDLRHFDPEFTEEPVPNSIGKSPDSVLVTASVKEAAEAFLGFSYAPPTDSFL
Sequence of MYLK (Q15746 whole entry): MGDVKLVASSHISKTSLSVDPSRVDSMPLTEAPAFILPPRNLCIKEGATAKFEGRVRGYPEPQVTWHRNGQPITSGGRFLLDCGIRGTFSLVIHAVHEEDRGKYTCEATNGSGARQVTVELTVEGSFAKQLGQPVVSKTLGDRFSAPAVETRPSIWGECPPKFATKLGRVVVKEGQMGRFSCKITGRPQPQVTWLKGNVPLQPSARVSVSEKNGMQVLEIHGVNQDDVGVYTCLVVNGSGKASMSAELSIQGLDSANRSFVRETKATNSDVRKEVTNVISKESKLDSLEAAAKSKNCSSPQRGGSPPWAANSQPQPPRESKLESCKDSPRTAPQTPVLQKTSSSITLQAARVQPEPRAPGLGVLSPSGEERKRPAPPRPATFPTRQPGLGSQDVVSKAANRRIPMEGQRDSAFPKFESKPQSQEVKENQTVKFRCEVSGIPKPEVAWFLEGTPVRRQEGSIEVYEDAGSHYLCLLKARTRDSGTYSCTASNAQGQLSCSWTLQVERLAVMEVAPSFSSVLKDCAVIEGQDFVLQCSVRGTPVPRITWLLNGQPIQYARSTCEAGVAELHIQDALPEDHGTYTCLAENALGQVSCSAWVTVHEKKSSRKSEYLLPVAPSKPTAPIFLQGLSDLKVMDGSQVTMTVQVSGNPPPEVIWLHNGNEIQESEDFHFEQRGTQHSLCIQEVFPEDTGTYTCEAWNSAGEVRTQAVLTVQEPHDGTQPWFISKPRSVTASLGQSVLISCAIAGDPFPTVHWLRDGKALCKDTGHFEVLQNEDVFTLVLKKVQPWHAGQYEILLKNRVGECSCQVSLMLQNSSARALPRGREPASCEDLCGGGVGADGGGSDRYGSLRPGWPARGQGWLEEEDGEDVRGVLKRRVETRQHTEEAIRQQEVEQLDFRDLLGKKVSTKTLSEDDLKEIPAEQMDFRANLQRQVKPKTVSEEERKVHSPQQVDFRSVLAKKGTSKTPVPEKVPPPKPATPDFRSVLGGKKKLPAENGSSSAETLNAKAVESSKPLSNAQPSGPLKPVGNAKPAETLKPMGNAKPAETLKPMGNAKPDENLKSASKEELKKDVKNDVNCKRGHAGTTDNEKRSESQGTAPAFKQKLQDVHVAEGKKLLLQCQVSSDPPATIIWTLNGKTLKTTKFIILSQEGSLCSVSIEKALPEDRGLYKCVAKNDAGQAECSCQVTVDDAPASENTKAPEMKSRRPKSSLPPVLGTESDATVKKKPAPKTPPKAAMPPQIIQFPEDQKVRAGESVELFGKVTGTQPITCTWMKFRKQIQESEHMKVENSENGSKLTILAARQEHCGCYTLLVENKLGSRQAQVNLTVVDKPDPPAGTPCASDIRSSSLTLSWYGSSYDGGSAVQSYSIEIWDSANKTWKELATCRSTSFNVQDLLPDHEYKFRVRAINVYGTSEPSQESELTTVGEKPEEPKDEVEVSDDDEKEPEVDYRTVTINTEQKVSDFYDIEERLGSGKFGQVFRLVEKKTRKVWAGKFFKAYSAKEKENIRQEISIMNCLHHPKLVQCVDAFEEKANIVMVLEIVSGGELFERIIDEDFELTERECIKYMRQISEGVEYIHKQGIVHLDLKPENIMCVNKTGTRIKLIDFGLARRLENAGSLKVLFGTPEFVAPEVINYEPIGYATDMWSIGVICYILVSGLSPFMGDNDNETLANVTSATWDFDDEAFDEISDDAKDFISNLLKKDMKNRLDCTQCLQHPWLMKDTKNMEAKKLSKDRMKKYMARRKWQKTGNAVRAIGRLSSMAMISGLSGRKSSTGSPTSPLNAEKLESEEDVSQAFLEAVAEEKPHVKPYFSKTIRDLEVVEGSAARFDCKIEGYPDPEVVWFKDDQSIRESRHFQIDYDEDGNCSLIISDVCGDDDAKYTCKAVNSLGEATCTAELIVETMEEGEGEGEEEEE
Sequence of FAK (Q05397 whole entry): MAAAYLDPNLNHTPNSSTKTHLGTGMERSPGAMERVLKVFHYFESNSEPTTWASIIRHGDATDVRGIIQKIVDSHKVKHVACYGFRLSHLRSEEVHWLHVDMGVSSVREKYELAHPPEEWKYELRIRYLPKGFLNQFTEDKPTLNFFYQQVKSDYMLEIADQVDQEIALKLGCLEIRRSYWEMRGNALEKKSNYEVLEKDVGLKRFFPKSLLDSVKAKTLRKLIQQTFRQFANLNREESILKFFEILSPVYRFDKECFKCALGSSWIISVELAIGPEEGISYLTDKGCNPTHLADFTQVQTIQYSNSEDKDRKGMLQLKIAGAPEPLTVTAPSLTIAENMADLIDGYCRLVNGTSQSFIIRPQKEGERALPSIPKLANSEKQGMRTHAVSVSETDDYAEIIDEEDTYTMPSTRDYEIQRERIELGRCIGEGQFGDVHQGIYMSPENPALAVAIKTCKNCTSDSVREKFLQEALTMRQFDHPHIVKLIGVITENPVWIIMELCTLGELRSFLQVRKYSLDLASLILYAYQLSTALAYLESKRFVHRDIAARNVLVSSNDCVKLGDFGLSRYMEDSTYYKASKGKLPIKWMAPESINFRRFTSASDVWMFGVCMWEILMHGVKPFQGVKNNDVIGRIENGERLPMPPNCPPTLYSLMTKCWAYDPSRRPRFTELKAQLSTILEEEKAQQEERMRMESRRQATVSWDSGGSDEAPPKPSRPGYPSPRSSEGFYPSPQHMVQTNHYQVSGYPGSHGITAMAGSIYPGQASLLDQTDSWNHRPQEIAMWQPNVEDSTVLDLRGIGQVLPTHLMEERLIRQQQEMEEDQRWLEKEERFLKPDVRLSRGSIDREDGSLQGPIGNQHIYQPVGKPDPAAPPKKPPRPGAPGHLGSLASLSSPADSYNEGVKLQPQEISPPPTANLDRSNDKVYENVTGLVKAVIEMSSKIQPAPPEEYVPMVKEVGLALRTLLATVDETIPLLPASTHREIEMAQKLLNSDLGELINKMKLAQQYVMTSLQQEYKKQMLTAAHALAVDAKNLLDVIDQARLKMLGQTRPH
Sequence of HIPK1 (Q86Z02 whole entry): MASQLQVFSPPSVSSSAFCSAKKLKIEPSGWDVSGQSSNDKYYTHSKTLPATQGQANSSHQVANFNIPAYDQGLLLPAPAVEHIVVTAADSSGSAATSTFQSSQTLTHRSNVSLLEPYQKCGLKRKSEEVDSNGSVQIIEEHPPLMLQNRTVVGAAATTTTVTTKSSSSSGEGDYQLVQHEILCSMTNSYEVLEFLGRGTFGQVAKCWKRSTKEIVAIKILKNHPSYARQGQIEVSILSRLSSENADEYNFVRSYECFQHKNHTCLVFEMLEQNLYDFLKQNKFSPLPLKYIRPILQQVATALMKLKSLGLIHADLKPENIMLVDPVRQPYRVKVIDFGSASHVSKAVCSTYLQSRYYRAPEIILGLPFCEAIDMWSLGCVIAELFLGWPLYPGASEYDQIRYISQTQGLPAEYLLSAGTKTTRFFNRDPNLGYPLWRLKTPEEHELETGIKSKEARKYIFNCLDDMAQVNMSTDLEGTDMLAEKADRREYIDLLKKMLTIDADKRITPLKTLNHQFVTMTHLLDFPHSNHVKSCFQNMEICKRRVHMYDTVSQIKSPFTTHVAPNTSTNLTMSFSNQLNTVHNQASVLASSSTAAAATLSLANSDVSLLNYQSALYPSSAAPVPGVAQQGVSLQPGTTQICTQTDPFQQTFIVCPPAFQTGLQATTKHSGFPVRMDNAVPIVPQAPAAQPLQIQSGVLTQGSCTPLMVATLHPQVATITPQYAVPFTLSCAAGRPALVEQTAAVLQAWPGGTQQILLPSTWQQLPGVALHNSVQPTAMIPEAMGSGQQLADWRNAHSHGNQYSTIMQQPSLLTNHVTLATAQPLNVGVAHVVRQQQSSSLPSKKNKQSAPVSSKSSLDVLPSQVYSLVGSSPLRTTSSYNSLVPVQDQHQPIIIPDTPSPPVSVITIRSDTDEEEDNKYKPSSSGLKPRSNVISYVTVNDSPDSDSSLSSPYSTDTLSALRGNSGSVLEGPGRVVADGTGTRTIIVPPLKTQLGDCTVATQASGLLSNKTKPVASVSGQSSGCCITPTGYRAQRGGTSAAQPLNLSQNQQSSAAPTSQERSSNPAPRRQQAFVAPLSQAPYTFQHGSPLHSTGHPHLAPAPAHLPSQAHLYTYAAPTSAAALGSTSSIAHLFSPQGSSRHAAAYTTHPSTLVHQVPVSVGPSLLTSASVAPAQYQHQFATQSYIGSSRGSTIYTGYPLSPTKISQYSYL
Sequence of CSK (P41240 whole entry): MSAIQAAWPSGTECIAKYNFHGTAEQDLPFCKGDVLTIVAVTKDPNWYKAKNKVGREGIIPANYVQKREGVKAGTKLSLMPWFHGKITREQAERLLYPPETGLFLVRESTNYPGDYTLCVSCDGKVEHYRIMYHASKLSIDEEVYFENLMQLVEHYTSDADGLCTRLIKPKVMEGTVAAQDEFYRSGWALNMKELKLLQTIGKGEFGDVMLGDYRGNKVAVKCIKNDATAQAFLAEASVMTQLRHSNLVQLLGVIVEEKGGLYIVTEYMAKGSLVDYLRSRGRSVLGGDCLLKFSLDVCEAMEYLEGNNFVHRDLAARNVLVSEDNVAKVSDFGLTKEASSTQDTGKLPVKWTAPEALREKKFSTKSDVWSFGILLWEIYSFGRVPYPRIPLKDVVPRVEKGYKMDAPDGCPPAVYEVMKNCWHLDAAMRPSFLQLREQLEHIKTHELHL

## COCCN1C[C@@H](NC(=O)Nc2c(C)c(-c3ccnc(C)c3)nn2-c2ccccc2)[C@H](c2ccc(F)c(F)c2)C1 [Example 2, 1-((3S,4R)-4-(3,4-difluorophenyl)-1-(2-methoxyethyl)pyrrolidin-3-yl)-3-(4-methyl-3-(2-methylpyridin-4-yl)-1-phenyl-1H-pyrazol-5-yl)urea]
CSK
  Avg POC: 113 POC
BLK
  Avg POC: 92 POC
TrkA
  Avg POC: 0.5 POC
PKAC-alpha
  Avg POC: 94.5 POC
p38delta
  Avg POC: 107.5 POC
NEK7
  Avg POC: 117 POC
PRKG1beta
  Avg POC: 97.5 POC
SGK1
  Avg POC: 98.5 POC
MAPKAP-K5
  Avg POC: 100 POC
FAK
  Avg POC: 111.5 POC
IR
  Avg POC: 74.5 POC
PKCbetaII
  Avg POC: 101.5 POC
Abl-P
  Avg POC: 113.5 POC
RIPK2
  Avg POC: 105.5 POC
BrSK2
  Avg POC: 93 POC
TAO1
  Avg POC: 102.5 POC
Plk1
  Avg POC: 100 POC
IRR
  Avg POC: 105 POC
MKK6
  Avg POC: 106.5 POC
CK1gamma2
  Avg POC: 73.5 POC
NEK2
  Avg POC: 96 POC
CK1_y
  Avg POC: 103 POC
MRCKalpha
  Avg POC: 113 POC
NEK6
  Avg POC: 105.5 POC
HIPK1
  Avg POC: 96.5 POC
SGK2
  Avg POC: 99 POC
PAK2
  Avg POC: 95.5 POC
eEF-2K
  Avg POC: 98.5 POC
Fes
  Avg POC: 135.5 POC
MYLK
  Avg POC: 86.5 POC
PASK
  Avg POC: 102.5 POC
PKCiota
  Avg POC: 95 POC
ITK
  Avg POC: 111 POC
mTOR
  Avg POC: 108.5 POC
Tie2
  Avg POC: 71.5 POC
EGFR
  Avg POC: 105.5 POC
MSK1
  Avg POC: 102.5 POC
GSK3beta
  Avg POC: 108 POC
LKB1
  Avg POC: 89.5 POC
Pim-3
  Avg POC: 104 POC
CK1gamma1
  Avg POC: 92 POC

## COCCN1C[C@@H](NC(=O)Nc2c(C)c(-c3cnc(C)nc3)nn2-c2ccccc2)[C@H](c2cc(F)cc(F)c2)C1 [Example 14, 1-((3S,4R)-4-(3,5-difluorophenyl)-1-(2-methoxyethyl)pyrrolidin-3-yl)-3-(4-methyl-3-(2-methylpyrimidin-5-yl)-1-phenyl-1H-pyrazol-5-yl)urea]
CSK
  Avg POC: 103 POC
BLK
  Avg POC: 91.5 POC
TrkA
  Avg POC: 1 POC
PKAC-alpha
  Avg POC: 109 POC
p38delta
  Avg POC: 102.5 POC
NEK7
  Avg POC: 106.5 POC
PRKG1beta
  Avg POC: 101.5 POC
SGK1
  Avg POC: 99 POC
MAPKAP-K5
  Avg POC: 123.5 POC
FAK
  Avg POC: 98.5 POC
IR
  Avg POC: 84 POC
PKCbetaII
  Avg POC: 92 POC
Abl-P
  Avg POC: 102.5 POC
RIPK2
  Avg POC: 93.5 POC
BrSK2
  Avg POC: 99 POC
TAO1
  Avg POC: 96.5 POC
Plk1
  Avg POC: 113 POC
IRR
  Avg POC: 96 POC
MKK6
  Avg POC: 99.5 POC
CK1gamma2
  Avg POC: 53 POC
NEK2
  Avg POC: 97.5 POC
CK1_y
  Avg POC: 97.5 POC
MRCKalpha
  Avg POC: 124.5 POC
NEK6
  Avg POC: 102 POC
HIPK1
  Avg POC: 97.5 POC
SGK2
  Avg POC: 100 POC
PAK2
  Avg POC: 92.5 POC
eEF-2K
  Avg POC: 103 POC
Fes
  Avg POC: 125 POC
MYLK
  Avg POC: 101.5 POC
PASK
  Avg POC: 100.5 POC
PKCiota
  Avg POC: 104.5 POC
ITK
  Avg POC: 101 POC
mTOR
  Avg POC: 102.5 POC
Tie2
  Avg POC: 71 POC
EGFR
  Avg POC: 96.5 POC
MSK1
  Avg POC: 106 POC
GSK3beta
  Avg POC: 114.5 POC
LKB1
  Avg POC: 103.5 POC
Pim-3
  Avg POC: 108.5 POC
CK1gamma1
  Avg POC: 80 POC
